Consider 8 molecules from ChEMBL document CHEMBL3351757, “Design and synthesis of novel and highly-active pan-histone deacetylase (pan-HDAC) inhibitors” (Bioorg Med Chem, 2014).

The target of assay [1] is Histone deacetylase 1 (Homo sapiens, UniProt Q13547). In words: Inhibition of human HDAC1 pre-incubated for 30 mins before substrate addition and measured after 30 mins by HDAC-Glo I/II assay.
The target in assay [2] is Histone deacetylase 2 (Homo sapiens, UniProt Q92769). In words: Inhibition of human HDAC2 pre-incubated for 30 mins before substrate addition and measured after 30 mins by HDAC-Glo I/II assay.
Chain of Histone deacetylase 2 (Q92769 whole entry): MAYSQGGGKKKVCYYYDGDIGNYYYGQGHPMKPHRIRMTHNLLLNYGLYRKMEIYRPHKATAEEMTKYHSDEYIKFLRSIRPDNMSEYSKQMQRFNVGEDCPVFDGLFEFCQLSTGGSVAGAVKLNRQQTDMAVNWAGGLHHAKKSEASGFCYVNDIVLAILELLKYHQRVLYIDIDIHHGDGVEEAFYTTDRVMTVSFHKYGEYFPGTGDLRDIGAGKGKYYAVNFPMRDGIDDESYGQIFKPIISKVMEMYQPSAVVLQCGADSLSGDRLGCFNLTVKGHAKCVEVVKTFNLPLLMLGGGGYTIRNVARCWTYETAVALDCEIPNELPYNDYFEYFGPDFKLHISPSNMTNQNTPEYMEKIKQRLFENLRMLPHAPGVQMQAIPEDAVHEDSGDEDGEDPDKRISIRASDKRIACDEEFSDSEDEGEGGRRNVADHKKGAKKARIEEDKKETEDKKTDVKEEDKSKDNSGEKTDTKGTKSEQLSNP
Assay [3] deals with Histone deacetylase 3 (Homo sapiens, UniProt O15379). The experiment in a line: Inhibition of human HDAC3 pre-incubated for 30 mins before substrate addition and measured after 30 mins by HDAC-Glo I/II assay.
Chain of Histone deacetylase 3 (O15379 whole entry): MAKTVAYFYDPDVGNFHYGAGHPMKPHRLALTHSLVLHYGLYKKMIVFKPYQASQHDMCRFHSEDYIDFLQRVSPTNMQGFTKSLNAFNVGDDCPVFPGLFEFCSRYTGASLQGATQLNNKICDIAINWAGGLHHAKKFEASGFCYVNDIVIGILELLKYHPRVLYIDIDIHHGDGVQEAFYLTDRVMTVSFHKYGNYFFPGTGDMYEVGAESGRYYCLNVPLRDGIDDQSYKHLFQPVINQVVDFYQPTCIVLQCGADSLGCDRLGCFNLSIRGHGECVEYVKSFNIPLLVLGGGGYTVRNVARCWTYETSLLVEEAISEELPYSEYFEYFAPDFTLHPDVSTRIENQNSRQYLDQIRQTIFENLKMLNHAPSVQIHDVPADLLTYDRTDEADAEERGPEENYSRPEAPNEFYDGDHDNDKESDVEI
Assay [4] concerns the target T1, Histone deacetylase 8 (Homo sapiens, UniProt Q9BY41).
T1 sequence (Q9BY41 whole entry): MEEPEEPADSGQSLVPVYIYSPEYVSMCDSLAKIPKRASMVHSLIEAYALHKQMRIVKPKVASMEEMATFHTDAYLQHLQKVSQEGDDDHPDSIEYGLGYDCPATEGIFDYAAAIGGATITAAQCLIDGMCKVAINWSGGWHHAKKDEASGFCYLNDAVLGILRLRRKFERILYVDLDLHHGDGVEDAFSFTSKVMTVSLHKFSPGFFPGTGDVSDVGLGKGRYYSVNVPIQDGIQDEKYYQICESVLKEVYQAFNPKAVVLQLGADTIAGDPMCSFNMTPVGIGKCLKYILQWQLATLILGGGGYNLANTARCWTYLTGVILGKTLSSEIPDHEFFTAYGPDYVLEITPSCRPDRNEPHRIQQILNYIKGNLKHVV
The experiment in a line: Inhibition of human HDAC8 pre-incubated for 30 mins before substrate addition and measured after 30 mins by HDAC-Glo I/II assay.

In assay [5] the target is Histone deacetylase 4 (Homo sapiens, UniProt P56524). The experiment in a line: Inhibition of human HDAC4 pre-incubated for 30 mins before substrate addition and measured after 30 mins by HDAC-Glo I/II assay.
Chain of Histone deacetylase 4 (P56524 whole entry): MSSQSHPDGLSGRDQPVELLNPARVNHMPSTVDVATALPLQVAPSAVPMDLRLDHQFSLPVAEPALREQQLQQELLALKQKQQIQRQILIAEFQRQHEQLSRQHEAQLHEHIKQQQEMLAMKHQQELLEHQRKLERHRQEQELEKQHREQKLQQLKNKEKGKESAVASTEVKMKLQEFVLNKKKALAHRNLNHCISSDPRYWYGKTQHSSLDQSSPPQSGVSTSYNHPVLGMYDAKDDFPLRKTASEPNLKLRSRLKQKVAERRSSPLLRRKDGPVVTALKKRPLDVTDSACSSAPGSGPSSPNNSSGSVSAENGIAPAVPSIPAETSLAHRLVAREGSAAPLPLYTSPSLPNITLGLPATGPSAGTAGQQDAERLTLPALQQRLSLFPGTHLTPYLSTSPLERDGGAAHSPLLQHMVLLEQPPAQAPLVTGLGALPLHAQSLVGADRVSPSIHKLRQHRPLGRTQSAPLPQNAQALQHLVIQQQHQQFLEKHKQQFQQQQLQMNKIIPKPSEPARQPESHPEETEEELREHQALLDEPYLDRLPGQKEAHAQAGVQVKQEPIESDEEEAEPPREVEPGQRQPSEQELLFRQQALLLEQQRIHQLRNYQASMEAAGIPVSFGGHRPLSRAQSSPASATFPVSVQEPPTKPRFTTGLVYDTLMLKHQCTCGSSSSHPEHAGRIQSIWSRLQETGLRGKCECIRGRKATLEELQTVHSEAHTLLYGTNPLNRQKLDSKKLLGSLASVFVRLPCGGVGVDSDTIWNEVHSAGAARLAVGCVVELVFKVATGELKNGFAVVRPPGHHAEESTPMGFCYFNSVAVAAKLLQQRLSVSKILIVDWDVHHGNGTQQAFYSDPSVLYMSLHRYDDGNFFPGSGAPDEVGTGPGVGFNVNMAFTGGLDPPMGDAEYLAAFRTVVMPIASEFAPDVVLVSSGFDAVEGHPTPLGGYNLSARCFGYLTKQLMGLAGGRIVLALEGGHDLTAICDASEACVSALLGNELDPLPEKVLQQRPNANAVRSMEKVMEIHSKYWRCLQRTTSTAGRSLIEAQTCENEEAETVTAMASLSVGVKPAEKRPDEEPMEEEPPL
Assay [6] has as its target Histone deacetylase 9 (Homo sapiens, UniProt Q9UKV0). In words: Inhibition of human HDAC9 pre-incubated for 30 mins before substrate addition and measured after 30 mins by HDAC-Glo I/II assay.
Assay [7] concerns the target T2, Protein deacetylase HDAC6 (Homo sapiens, UniProt Q9UBN7).
T2 sequence (Q9UBN7 whole entry): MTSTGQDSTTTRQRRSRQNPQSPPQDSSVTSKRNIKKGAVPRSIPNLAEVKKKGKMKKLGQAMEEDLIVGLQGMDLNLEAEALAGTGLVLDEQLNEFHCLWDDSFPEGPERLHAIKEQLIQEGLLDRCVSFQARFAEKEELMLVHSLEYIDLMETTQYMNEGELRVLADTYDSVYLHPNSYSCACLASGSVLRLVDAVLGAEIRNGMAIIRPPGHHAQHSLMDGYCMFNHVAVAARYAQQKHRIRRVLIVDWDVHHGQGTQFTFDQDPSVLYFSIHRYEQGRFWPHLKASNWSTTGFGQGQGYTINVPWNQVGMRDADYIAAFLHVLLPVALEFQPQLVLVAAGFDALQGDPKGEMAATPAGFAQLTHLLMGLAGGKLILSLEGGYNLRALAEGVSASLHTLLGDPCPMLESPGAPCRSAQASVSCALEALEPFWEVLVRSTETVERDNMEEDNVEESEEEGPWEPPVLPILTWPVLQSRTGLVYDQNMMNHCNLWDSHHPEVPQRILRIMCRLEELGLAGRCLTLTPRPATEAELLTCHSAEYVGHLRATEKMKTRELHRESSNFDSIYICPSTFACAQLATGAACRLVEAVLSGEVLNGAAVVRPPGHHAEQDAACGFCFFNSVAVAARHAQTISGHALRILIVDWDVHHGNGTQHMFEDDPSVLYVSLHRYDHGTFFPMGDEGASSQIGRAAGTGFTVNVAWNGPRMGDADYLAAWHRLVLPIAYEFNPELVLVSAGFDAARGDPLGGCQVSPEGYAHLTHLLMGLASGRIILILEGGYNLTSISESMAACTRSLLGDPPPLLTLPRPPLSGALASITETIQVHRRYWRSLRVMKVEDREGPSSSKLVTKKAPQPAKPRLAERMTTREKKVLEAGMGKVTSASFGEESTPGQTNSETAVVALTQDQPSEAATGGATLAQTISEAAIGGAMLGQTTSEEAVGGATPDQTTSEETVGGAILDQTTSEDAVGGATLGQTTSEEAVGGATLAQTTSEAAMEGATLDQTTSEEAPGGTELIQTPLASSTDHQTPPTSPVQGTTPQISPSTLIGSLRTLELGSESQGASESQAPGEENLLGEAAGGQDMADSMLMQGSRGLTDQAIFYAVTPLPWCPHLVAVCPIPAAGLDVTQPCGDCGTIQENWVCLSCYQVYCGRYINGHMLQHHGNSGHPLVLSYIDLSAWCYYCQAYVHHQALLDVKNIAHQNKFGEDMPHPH
In words: Inhibition of human HDAC6 pre-incubated for 30 mins before substrate addition and measured after 30 mins by HDAC-Glo I/II assay.

Assay [8] deals with T3, Histone deacetylase (Rattus norvegicus) (UniProt Q6P6W3+Q99P99+Q99P96+Q4QQW4+Q99P97+Q5RJZ2+B1WBY8). The following applies: at 10 µM.
Description: Inhibition of rat liver HDAC at 10 uM pre-incubated for 15 mins before Boc-Lys(Ac)-AMC substrate addition and measured after 30 mins by fluorometry
Assay [9] deals with T3, Histone deacetylase (Rattus norvegicus). Conditions: at 0.1 µM.
Description: Inhibition of rat liver HDAC at 0.1 uM pre-incubated for 15 mins before Boc-Lys(Ac)-AMC substrate addition and measured after 30 mins by fluorometry

Chain of Histone deacetylase 1 (Q13547 whole entry): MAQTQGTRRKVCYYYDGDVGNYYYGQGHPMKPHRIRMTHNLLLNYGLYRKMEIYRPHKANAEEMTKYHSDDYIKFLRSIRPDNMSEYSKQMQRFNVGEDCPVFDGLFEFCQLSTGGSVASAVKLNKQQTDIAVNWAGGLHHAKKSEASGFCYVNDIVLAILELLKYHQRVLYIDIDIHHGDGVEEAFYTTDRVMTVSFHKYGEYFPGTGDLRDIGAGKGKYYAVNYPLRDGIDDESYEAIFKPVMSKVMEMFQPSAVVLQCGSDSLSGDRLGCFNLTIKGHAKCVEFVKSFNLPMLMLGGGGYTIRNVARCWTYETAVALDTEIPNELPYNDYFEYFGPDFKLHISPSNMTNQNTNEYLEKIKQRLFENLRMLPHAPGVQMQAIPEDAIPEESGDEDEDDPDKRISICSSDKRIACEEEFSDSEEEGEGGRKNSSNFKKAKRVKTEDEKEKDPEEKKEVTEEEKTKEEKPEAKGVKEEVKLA
Chain of Histone deacetylase 9 (Q9UKV0 whole entry): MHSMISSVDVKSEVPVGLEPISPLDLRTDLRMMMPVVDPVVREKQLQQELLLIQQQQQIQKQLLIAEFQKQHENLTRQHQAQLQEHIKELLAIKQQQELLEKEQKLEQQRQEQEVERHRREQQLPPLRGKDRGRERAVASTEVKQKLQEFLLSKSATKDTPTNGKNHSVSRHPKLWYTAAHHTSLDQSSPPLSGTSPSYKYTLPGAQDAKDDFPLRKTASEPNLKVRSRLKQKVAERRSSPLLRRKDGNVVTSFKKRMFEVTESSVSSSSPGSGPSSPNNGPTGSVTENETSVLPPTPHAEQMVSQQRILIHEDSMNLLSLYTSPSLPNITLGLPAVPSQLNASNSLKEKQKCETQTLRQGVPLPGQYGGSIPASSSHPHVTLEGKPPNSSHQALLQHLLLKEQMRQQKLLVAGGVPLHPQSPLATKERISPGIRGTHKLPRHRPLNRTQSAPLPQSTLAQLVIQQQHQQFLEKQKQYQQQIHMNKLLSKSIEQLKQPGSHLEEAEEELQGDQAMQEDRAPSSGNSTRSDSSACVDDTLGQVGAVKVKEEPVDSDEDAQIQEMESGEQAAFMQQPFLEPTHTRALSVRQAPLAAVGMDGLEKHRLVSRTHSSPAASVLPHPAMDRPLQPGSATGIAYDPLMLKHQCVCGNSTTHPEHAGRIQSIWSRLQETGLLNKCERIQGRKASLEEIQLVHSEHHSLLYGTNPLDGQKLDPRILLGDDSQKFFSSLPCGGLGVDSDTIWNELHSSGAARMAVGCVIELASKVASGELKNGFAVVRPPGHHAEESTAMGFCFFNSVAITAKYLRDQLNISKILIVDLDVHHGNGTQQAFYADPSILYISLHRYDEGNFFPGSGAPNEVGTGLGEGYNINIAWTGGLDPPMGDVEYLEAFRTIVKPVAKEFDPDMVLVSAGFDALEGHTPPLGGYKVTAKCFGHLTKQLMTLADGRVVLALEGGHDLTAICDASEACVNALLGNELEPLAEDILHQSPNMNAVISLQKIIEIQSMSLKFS

In the case of `Cn1c(=O)ccc2cc(C(=O)NCCCCCCC(=O)NO)ccc21`, the IC50 – broadly, the concentration that inhibits the measured activity by half – in [1] turned out to be 89 nM; in [2], 90 nM; in [3], 98 nM; in assay [4], 72 nM; in [5] it was 86 nM; in assay [6], 41 nM. Besides, the IC50 in assay [7] was 86 nM. Also, the inhibition (usually the change of the read-out against control, counted positive when it falls) in assay [8] was determined as 99%; in [9], 63%.

Take `CC1(C)CC(=O)Nc2ccc(NC(=O)CCCCCCC(=O)NO)cc21`: the 50% inhibitory concentration (IC50) turned out to be 9.1 nM in assay [1]; 10 nM in assay [2]; 89 nM in assay [3]; 33 nM in [4]; 47 nM in [5]; 45 nM in assay [6]. The molecule further returned an IC50 in assay [7] of 550 nM. The inhibition in assay [8] came to 98%; in assay [9], 58%.

As to `COc1ccc2cc(C(=O)NCCCCCCC(=O)NO)ccc2n1`, the IC50 was determined as 52 nM in assay [1]; 170 nM in assay [2]; 28 nM in [3]; 80 nM in assay [4]; 78 nM in assay [5]; 34 nM in assay [6]. Moreover, the IC50 in assay [7] is 40 nM. Moreover, the inhibition amounted to 100% in assay [8] and 70% in [9].

`CN1C(=O)CC(C)(C)c2cc(C(=O)NCCCCCCC(=O)NO)ccc21`: the IC50 in assay [1] is 43 nM; in [2] it was 100 nM; in assay [3], 28 nM; in [4] it was 59 nM; in assay [5], 280 nM; in assay [6], 120 nM. Moreover, in assay [7], the IC50 was 130 nM. Further, the inhibition in [8] was determined as 99%; in assay [9] it was 50%.

Turning to `CC1(C)CC(=O)Nc2ccc(C(=O)NCc3ccc(/C=C/C(=O)NO)cc3)cc21`, the IC50 in assay [1] amounted to 66 nM; in assay [2], 22 nM; in assay [3] it was 65 nM; in [4], 49 nM; in assay [5], 380 nM; in assay [6], 37 nM. Besides, the IC50 in [7] was determined as 110 nM. In addition, the inhibition amounted to 98% in assay [8] and 46% in assay [9].

For `CC1(C)CC(=O)Nc2ccc(C(=O)NC[C@H]3CC[C@@H](CCC(=O)NO)CC3)cc21`, the IC50 in assay [1] came out at 41 nM; in assay [2] it was 25 nM; in assay [3], 87 nM; in assay [4] it was 24 nM; in assay [5], 330 nM; in assay [6], 50 nM. This molecule showed an IC50 in assay [7] of 530 nM. The results for the inhibition in [8] and in assay [9] were 97% and 27%, respectively.

For the molecule `CC1(C)CC(=O)Nc2ccc(C(=O)NC[C@H]3CC[C@H](CCC(=O)NO)CC3)cc21`, the IC50 in assay [1] was determined as 35 nM; in [2], 35 nM; in assay [3], 89 nM; in assay [4] it was 28 nM; in assay [5], 220 nM; in assay [6], 57 nM. This molecule also returned an IC50 in [7] of 440 nM. Moreover, the inhibition in [8] came out at 99%; in assay [9], 43%.

For `CC1(C)CC(=O)Nc2ccc(C(=O)NCc3cccc(/C=C/C(=O)NO)c3)cc21`, the concentration for half-maximal inhibition (IC50) is 670 nM in [1]; 100 nM in assay [2]; 210 nM in [3]; 200 nM in assay [4]; 2000 nM in assay [5]; 570 nM in assay [6]. In assay [7], this molecule gave an IC50 of 290 nM. Besides, the figures for the inhibition in [8] and in assay [9] were 95% and 22%, respectively.
